This is an account of results in US10975084B2, “KDM5 inhibitors” (Merck Sharp & Dohme Corp., priority 2016, dated 2021).

Usually IC50 stands for the concentration at which inhibition is half-maximal.

For this assay, the target named is KDM5B (Homo sapiens (Human), UniProt Q9UGL1). As to the kind of experiment: KDM5B TR-FRET Enzyme Activity Assay. The class given is biochemical. To be noted: LANCE TR-FRET; 5 nM full-length recombinant KDM5B; ten point titration 100000 nM to 5.08 nM. In a few lines: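 Full-length KDM5B from Sf21 cells (5 nM) was preincubated 30 min with compound in HEPES pH 7.3 buffer with ascorbate and 2 μM Fe(II). Reaction with 500 nM biotinylated H3K4Me3 peptide and 500 nM α-ketoglutarate ran 60 min. Product was detected by TR-FRET (Eu-anti-H3K4Me1-2/streptavidin-Dylight 650, 665/615 ratio); IC50 came from a 4-parameter fit.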
On the technique in general: In TR-FRET formats the signal depends on donor and acceptor labels being close together.

Chain of KDM5B (Q9UGL1 whole entry): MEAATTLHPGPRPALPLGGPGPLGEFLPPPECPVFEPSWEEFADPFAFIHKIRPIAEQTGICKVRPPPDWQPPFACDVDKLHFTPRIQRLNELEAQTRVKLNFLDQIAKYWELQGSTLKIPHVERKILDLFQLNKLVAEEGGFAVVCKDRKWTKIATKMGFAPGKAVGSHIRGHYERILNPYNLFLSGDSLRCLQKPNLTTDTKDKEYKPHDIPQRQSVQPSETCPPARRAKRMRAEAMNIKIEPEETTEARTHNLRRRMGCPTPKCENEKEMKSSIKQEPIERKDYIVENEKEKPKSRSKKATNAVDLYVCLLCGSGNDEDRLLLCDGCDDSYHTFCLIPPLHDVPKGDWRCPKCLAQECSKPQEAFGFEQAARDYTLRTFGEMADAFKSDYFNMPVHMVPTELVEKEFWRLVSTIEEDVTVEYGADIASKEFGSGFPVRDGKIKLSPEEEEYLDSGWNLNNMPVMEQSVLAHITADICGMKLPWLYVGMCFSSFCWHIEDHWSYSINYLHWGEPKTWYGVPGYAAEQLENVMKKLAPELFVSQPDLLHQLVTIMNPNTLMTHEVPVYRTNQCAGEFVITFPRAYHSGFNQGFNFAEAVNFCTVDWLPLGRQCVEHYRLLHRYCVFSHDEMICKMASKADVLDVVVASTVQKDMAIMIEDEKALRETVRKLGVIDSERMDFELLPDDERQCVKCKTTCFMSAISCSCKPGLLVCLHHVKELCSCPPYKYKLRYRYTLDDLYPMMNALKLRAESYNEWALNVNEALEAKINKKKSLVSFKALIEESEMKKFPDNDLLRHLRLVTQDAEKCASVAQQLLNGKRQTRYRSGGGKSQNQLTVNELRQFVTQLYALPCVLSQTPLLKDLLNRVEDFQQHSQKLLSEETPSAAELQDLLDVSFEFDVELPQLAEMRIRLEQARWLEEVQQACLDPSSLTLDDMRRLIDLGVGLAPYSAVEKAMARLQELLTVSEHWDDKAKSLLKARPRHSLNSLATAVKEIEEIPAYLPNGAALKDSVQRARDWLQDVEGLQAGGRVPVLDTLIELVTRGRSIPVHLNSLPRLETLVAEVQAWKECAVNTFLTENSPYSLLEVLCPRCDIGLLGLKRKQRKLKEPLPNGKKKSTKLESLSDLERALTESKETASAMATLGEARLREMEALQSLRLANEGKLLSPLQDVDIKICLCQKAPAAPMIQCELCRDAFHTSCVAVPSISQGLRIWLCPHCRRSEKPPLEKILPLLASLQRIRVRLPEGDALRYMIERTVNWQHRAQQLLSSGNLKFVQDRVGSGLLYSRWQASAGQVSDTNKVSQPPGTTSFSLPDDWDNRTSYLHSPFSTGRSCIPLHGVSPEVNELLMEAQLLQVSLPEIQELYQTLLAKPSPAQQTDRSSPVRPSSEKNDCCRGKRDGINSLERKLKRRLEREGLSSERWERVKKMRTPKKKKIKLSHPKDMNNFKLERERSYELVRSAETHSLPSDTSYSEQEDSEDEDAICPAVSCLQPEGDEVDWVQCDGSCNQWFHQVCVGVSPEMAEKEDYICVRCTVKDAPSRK

With `CC(C)c1c(-c2cnc(-c3ccc(F)cc3)o2)[nH]c2ncnn2c1=O` [Example 11-113, 5-[2-(4-fluorophenyl)-1,3-oxazol-5-yl]-6-(1-methylethyl)[1,2,4]triazolo[1,5-a]pyrimidin-7(4H)-one], the IC50 worked out at 17.3 nM.
With `Cc1c(-c2[nH]c3ncnn3c(=O)c2C(C)C)cnn1-c1ccccc1` [Example 11-114, 6-(1-methylethyl)-5-(5-methyl-1-phenyl-1H-pyrazol-4-yl)[1,2,4]triazolo[1,5-a]pyrimidin-7(4H)-one], the IC50 turned out to be 337 nM.
Turning to `Cc1csc(-c2[nH]c3ncnn3c(=O)c2C(C)C)c1` [Example 11-115, 6-(1-methylethyl)-5-(4-methylthiophen-2-yl)[1,2,4]triazolo[1,5-a]pyrimidin-7(4H)-one], the IC50 worked out at 122 nM.
For the compound `Cc1nc(-c2ccccc2)sc1-c1[nH]c2ncnn2c(=O)c1C(C)C` [Example 11-116, 6-(1-methylethyl)-5-(4-methyl-2-phenyl-1,3-thiazol-5-yl)[1,2,4]triazolo[1,5-a]pyrimidin-7(4H)-one], the IC50 was found to be 444 nM.
As for `Cc1ccc(-c2[nH]c3ncnn3c(=O)c2C(C)C)o1` [Example 11-117, 6-(1-methylethyl)-5-(5-methylfuran-2-yl)[1,2,4]triazolo[1,5-a]pyrimidin-7(4H)-one], the IC50 is 552 nM.
As for `CC(C)c1c(-c2ccc(N3CCNCC3)cc2)[nH]c2ncnn2c1=O` [Example 11-118, 6-(1-methylethyl)-5-(4-piperazin-1-ylphenyl)[1,2,4]triazolo[1,5-a]pyrimidin-7(4H)-one], the IC50 amounted to 9.79 nM.
Turning to `CC(C)c1c(-c2ccc(N)c(F)c2)[nH]c2ncnn2c1=O` [Example 11-119, 5-(4-amino-3-fluorophenyl)-6-(1-methylethyl)[1,2,4]triazolo[1,5-a]pyrimidin-7(4H)-one], the IC50 was determined as 27.5 nM.
`CC(C)c1c(-c2ccnc(C(F)(F)F)c2)[nH]c2ncnn2c1=O` [Example 11-120, 6-(1-methylethyl)-5-[2-(trifluoromethyl)pyridin-4-yl][1,2,4]triazolo[1,5-a]pyrimidin-7(4H)-one]: the IC50 is 17 nM.
For the compound `CC(C)c1c(-c2cncc(C(C)(C)O)c2)[nH]c2ncnn2c1=O` [Example 11-121, 5-[5-(1-hydroxy-1-methylethyl)pyridin-3-yl]-6-(1-methylethyl)[1,2,4]triazolo[1,5-a]pyrimidin-7(4H)-one], the IC50 worked out at 43.5 nM.
In the case of `CC(C)c1c(-c2cn[nH]c2)[nH]c2ncnn2c1=O` [Example 11-122, 6-(1-methylethyl)-5-(1H-pyrazol-4-yl)[1,2,4]triazolo[1,5-a]pyrimidin-7(4H)-one], the IC50 was 13.3 nM.
Consider `CC(C)c1c(-c2ccc3c(c2)CC(=O)N3)[nH]c2ncnn2c1=O` [Example 11-123, 6-(1-methylethyl)-5-(2-oxo-2,3-dihydro-1H-indol-5-yl)[1,2,4]triazolo[1,5-a]pyrimidin-7(4H)-one], for which the IC50 was found to be 6.93 nM.
To `CC(C)c1c(-c2ccc(NS(=O)(=O)C3CC3)cc2)[nH]c2ncnn2c1=O` [Example 11-124, N-{4-[6-(1-methylethyl)-7-oxo-4,7-dihydro[1,2,4]triazolo[1,5-a]pyrimidin-5-yl]phenyl}cyclopropanesulfonamide] belongs 8.76 nM; to `CC(C)c1c(-c2cnn(C3CCCCO3)c2)[nH]c2ncnn2c1=O` (stereo not shown) [Example 11-125, 6-(1-methylethyl)-5-[1-(tetrahydro-2H-pyran-2-yl)-1H-pyrazol-4-yl][1,2,4]triazolo[1,5-a]pyrimidin-7(4H)-one], 7.36 nM.
In the case of `CC(C)c1c(-c2ccc(N3CCCCC3)nc2)[nH]c2ncnn2c1=O` [Example 11-126, 6-(1-methylethyl)-5-(6-piperidin-1-ylpyridin-3-yl)[1,2,4]triazolo[1,5-a]pyrimidin-7(4H)-one] it was 10.4 nM.
In the case of `CC(C)c1c(-c2ccc(N3CCOCC3)nc2)[nH]c2ncnn2c1=O` [Example 11-127, 6-(1-methylethyl)-5-(6-morpholin-4-ylpyridin-3-yl)[1,2,4]triazolo[1,5-a]pyrimidin-7(4H)-one] it was 11.6 nM.
In the case of `CC(C)c1c(-c2ccc(-n3cccn3)nc2)[nH]c2ncnn2c1=O` [Example 11-128, 6-(1-methylethyl)-5-[6-(1H-pyrazol-1-yl)pyridin-3-yl][1,2,4]triazolo[1,5-a]pyrimidin-7(4H)-one], the IC50 worked out at 12.3 nM.
On to `CC(C)c1c(-c2ccc(F)nc2)[nH]c2ncnn2c1=O` [Example 11-129, 5-(6-fluoropyridin-3-yl)-6-(1-methylethyl)[1,2,4]triazolo[1,5-a]pyrimidin-7(4H)-one], for which the IC50 was 66.8 nM.
Take `CC(C)c1c(-c2ccc(CO)nc2)[nH]c2ncnn2c1=O` [Example 11-130, 5-[6-(hydroxymethyl)pyridin-3-yl]-6-(1-methylethyl)[1,2,4]triazolo[1,5-a]pyrimidin-7(4H)-one]: the IC50 came out at 54.5 nM.
Consider `CC(C)c1c(-c2ccc(C#N)nc2)[nH]c2ncnn2c1=O` [Example 11-131, 5-[6-(1-methylethyl)-7-oxo-4,7-dihydro[1,2,4]triazolo[1,5-a]pyrimidin-5-yl]pyridine-2-carbonitrile], for which the IC50 is 48.7 nM.
Consider `CC(C)c1c(-c2ccc(C(F)(F)F)nc2)[nH]c2ncnn2c1=O` [Example 11-132, 6-(1-methylethyl)-5-[6-(trifluoromethyl)pyridin-3-yl][1,2,4]triazolo[1,5-a]pyrimidin-7(4H)-one], for which the IC50 is 41.7 nM.
Regarding `CC(C)c1c(-c2ccc(C3CC3)nc2)[nH]c2ncnn2c1=O` [Example 11-133, 5-(6-cyclopropylpyridin-3-yl)-6-(1-methylethyl)[1,2,4]triazolo[1,5-a]pyrimidin-7(4H)-one], the IC50 amounted to 44.4 nM.
In the case of `CC(C)c1c(-c2ccn(C(C)(C)C)c2)[nH]c2ncnn2c1=O` [Example 11-134, 5-(1-tert-butyl-1H-pyrrol-3-yl)-6-(1-methylethyl)[1,2,4]triazolo[1,5-a]pyrimidin-7(4H)-one] it was 5.08 nM; in that of `CC(C)c1c(-c2cc(C(C)(C)C)n[nH]2)[nH]c2ncnn2c1=O` [Example 11-135, 5-(3-tert-butyl-1H-pyrazol-5-yl)-6-(1-methylethyl)[1,2,4]triazolo[1,5-a]pyrimidin-7(4H)-one], 61 nM; in that of `CC(C)c1c(-c2csc(-c3ccccc3)n2)[nH]c2ncnn2c1=O` [Example 11-136, 6-(1-methylethyl)-5-(2-phenyl-1,3-thiazol-4-yl)[1,2,4]triazolo[1,5-a]pyrimidin-7(4H)-one], 469 nM.
In the case of `CC(C)c1c(-c2csc(-n3cccn3)n2)[nH]c2ncnn2c1=O` [Example 11-137, 6-(1-methylethyl)-5-[2-(1H-pyrazol-1-yl)-1,3-thiazol-4-yl][1,2,4]triazolo[1,5-a]pyrimidin-7(4H)-one], the IC50 stood at 41.9 nM.
Turning to `CC(C)c1c(-c2ccsc2)[nH]c2ncnn2c1=O` [Example 11-138, 6-(1-methylethyl)-5-thiophen-3-yl[1,2,4]triazolo[1,5-a]pyrimidin-7(4H)-one], the IC50 came to 657 nM.
For `CC(C)c1c(-c2cnco2)[nH]c2ncnn2c1=O` [Example 11-139, 6-(1-methylethyl)-5-(1,3-oxazol-5-yl)[1,2,4]triazolo[1,5-a]pyrimidin-7(4H)-one], the IC50 was found to be 193 nM.
As to `CC(C)c1c(-c2csc(-n3cccc3)n2)[nH]c2ncnn2c1=O` [Example 11-140, 6-(1-methylethyl)-5-[2-(1H-pyrrol-1-yl)-1,3-thiazol-4-yl][1,2,4]triazolo[1,5-a]pyrimidin-7(4H)-one], the IC50 stood at 124 nM.
Turning to `CC(C)c1csc(-c2[nH]c3ncnn3c(=O)c2C(C)C)c1` [Example 11-141, 6-(1-methylethyl)-5-[4-(1-methylethyl)thiophen-2-yl][1,2,4]triazolo[1,5-a]pyrimidin-7(4H)-one], the IC50 is 59.8 nM.
For the compound `CC(C)c1c(-c2cc(C3CCC3)cs2)[nH]c2ncnn2c1=O` [Example 11-142, 5-(4-cyclobutylthiophen-2-yl)-6-(1-methylethyl)[1,2,4]triazolo[1,5-a]pyrimidin-7(4H)-one], the IC50 came out at 112 nM.
In the case of `CC(C)c1c(-c2cc(C3CC3)cs2)[nH]c2ncnn2c1=O` [Example 11-143, 5-(4-cyclopropylthiophen-2-yl)-6-(1-methylethyl)[1,2,4]triazolo[1,5-a]pyrimidin-7(4H)-one], the IC50 was 79.3 nM.
With `CC(C)c1c(-c2cc(-c3ccccc3)cs2)[nH]c2ncnn2c1=O` [Example 11-144, 6-(1-methylethyl)-5-(4-phenylthiophen-2-yl)[1,2,4]triazolo[1,5-a]pyrimidin-7(4H)-one], the IC50 worked out at 76.2 nM.
In the case of `CC(C)c1c(-c2cnn(C(C)(C)C)c2)[nH]c2ncnn2c1=O` [Example 11-145, 5-(1-tert-butyl-1H-pyrazol-4-yl)-6-(1-methylethyl)[1,2,4]triazolo[1,5-a]pyrimidin-7(4H)-one] it was 5.08 nM.
Regarding `CC(C)CCn1cc(-c2[nH]c3ncnn3c(=O)c2C(C)C)cn1` [Example 11-146, 5-[1-(3-methylbutyl)-1H-pyrazol-4-yl]-6-(1-methylethyl)[1,2,4]triazolo[1,5-a]pyrimidin-7(4H)-one], the 50% inhibitory concentration (IC50) amounted to 5.22 nM.
In the case of `CC(C)c1c(-c2cccs2)[nH]c2ncnn2c1=O` [Example 11-147, 6-(1-methylethyl)-5-thiophen-2-yl[1,2,4]triazolo[1,5-a]pyrimidin-7(4H)-one], the IC50 turned out to be 413 nM.
Turning to `CC(C)c1c(-c2ccc(C(F)(F)CO)nc2)[nH]c2ncnn2c1=O` [Example 12-2, 5-[6-(1,1-difluoro-2-hydroxyethyl)pyridin-3-yl]-6-(1-methylethyl)[1,2,4]triazolo[1,5-a]pyrimidin-7(4H)-one], the IC50 was 30.7 nM.
As for `CC(C)c1c(-c2cncc(CO)c2)[nH]c2ncnn2c1=O` [Example 12-3, 5-[5-(hydroxymethyl)pyridin-3-yl]-6-(1-methylethyl)[1,2,4]triazolo[1,5-a]pyrimidin-7(4H)-one], the half-maximal inhibitory concentration (IC50) came out at 22.5 nM.
